Counter-ions that a name gives are not always drawn. Like-named read-outs stand apart in the source and are kept apart here. One block for each molecule: values may come before it.
Legend:
[1] = 10-Day Rat Hormone (Ovarian Stimulation) Screen; assay type: in vivo; details: mature F344 female rats, oral gavage 10 days, serum about 2 hours after 10th dose, RIA
Protocol: 10-Day Rat Hormone (Ovarian Stimulation) Screen: An initial, first screen for ovarian toxicity is conducted using a 10-day rat hormone study to measure estradiol and luteinizing hormone levels after compound administration. This screen is conducted by administering compound by oral gavage for 10 days to mature (9-10 week old) F344 female rats. Trunk blood is collected by rapid decapitation for evaluation of LH and estradiol levels approximately 2 hours after the 10th dose. Serum, obtained by centrifugation, is removed and stored frozen below −60° C. until assayed. Serum levels of LH and estradiol are measured using radioimmunoassay (RIA) methods.
Rat LH primary antibody and reference preparations (rat LH:RP-3) are obtained from Dr. A. F. Parlow, Director, Pituitary Hormones and Antisera Center, Harbor-UCLA Medical Center, Torrance, Calif. The LH assay upper limits of detection are 30 ng/mL and the lower limits of detection are 0.1 ng/mL for the 100 μl samples.
E2 Clinical Assays. DiaSorin s.r.l., Saluggia (Vercelli), Italy. The upper limit of detection is 1000 pg/mL and the lower limit of detection is 5 pg/mL.

[2] = test system: estrogen-induced response; experiment: 3-Day Rat Uterus Antagonist Assay; assay type: in vivo; details: immature female rats, oral, 3 days, with E2 0.1 mg/kg; for inhibition of the estrogen-induced response (uterine weight/body weight ratio): administered at 0.01, 0.1 and 1.0 mg/kg
Excerpt: 3-Day Rat Uterus Antagonist Assay: This model for uterine antagonism utilizes immature (3 week old) female rats that are highly sensitive to estrogenic stimulation of the uterus given that their circulating estrogen levels are prepubertal. The uteri from immature rats are fully responsive to exogenous estrogen, yet are quiescent in the absence of exogenous estrogen. Administration of exogenous estrogen to immature rats produces a reliable elevation of uterine weight, which can be used to study uterine antagonist effects. The rats are treated with both estradiol and 4 different concentrations of a compound of the present invention for 3 days and then uterine wet weights are measured.
Nineteen to twenty-one day old (or 45-50 g) female rats are orally treated with E2 (0.1 mg/kg, a maximal stimulatory estrogenic stimulus for reliably increasing uterine weight) and 10, 1.0, 0.1 and 0.01 mg/kg test compound for 3 days, 6 rats per group. Test compounds are dissolved in 20% β-hydroxycyclodextrin and administered by oral gavage in a volume of 0.2 mL daily (15 min. prior to the ethynyl estradiol gavage). A vehicle control, E2 alone and E2+raloxifene are also done as controls. The animals are fasted overnight following the final dose. On the following morning, the animals are weighed, then euthanized (by carbon dioxide asphyxiation) and the uteri rapidly collected (via a mid-line ventral incision) and weighed.
Uterine weight/body weight ratios (UWR) are calculated for each animal. The percent inhibition of the estrogen-induced response is then calculated by the following formula: percent inhibition=100×(UWRestrogen−UWRtest compound/UWRestrogen−UWRcontrol). ED50 values are derived from a semi-log regression analysis of the linear aspect of the dose response curve. Both the UWR data and the percent inhibition data are statistically analyzed by one way analysis of variance (ANOVA) with post-hoc testing by Fisher's PLSD when indicated by a p≦0.05. Statistical analyses are performed using the Statview® 4.0 software package.

[3] = test system: Ishikawa human endometrial tumor cells; experiment: Ishikawa Cell Proliferation Assay (alkaline phosphatase readout; agonist and antagonist modes); assay type: cell-based; details: for stimulation compared with tamoxifen: compound alone
Protocol: Ishikawa Cell Proliferation Assay: This assay measures cell proliferation (using an alkaline phosphatase readout) in both an agonist mode in the presence of a compound of the present invention alone, and in an antagonist mode in which the ability of a compound of the present invention to block estradiol stimulation of growth is measured.
Ishikawa human endometrial tumor cells are maintained in MEM (minimum essential medium, with Earle's salts and L-Glutamine, Gibco BRL, Gaithersburg, Md.), supplemented with 10% fetal bovine serum (FBS) (V/V), (Gibco BRL). One day prior to assay, growth media is changed to assay medium, DMEM/F-12 (3:1) (Dulbecco's Modified Eagle Medium: Nutrient Mixture F-12, 3:1 Mixture, phenol red-free, Gibco BRL) supplemented with 5% dextran coated charcoal stripped fetal bovine serum (DCC-FBS) (Hyclone, Logen, Utah), L-Glutamine (2 mM), MEM sodium pyruvate (1 mM), HEPES (N-[2-hydroxyethyl]piperazine-N′-[2-ethanesulfonic acid] 2 mM) all from Gibco BRL). After an overnight incubation, Ishikawa cells are rinsed with Dulbecco's Phosphate Buffered Saline (1×) (D-PBS) without Ca^+2 and Mg^+2 (Gibco BRL), and trypsinized by a 3 minute incubation with 0.25% Trypsin/EDTA, phenol red-free (Gibco BRL). Cells are resuspended in assay medium and adjusted to 250,000 cells/mL. Approximately 25,000 cells in a 100 μl media are added to flat-bottom 96 wells microculture plates (Costar 3596) and incubated at 37° C. in a 5% CO2 humidified incubator for 24 hours. The next day, serial dilutions of compounds are prepared in assay medium (at 6 times the final concentration in the assay). The assay is run in dual mode, agonist and antagonist modes.
For the agonist mode, plates receive 25 μl/well of assay medium followed by 25 μl/well of a diluted compound of the present invention (at 6× the final concentrations). For the antagonist mode, plates receive 25 μl/well of 6 nM E2 (β-Estradiol, Sigma, St. Louis, Mo.) followed by 25 μl/well of a diluted compound of the present invention (at 6× the final concentrations). After an additional 48-hour incubation at 37° C. in a 5% CO2 humidified incubator, media is aspirated from wells and 100 μl fresh assay medium is added to each microculture. Serial dilutions of compounds are prepared and added to the cells as described above. After an additional 72 hour incubation at 37° C. in a 5% CO2 humidified incubator, the assay is quenched by removing media and rinsing plates twice in Dulbecco's Phosphate Buffered Saline (1×) (D-PBS) (Gibco BRL). The plates are dried for 5 minutes and frozen at −70° C. for at least 1 hour. The plates are then removed from the freezer and allowed to thaw at room temperature. To each well, 100 μl of 1-Step™ PNPP (Pierce Chemical Company, Rockford, Ill.) is added. After a 20-minute incubation, plates are read on a spectophotometer at 405 nm.
The data is fitted to a linear interpolation to derive EC50 (for agonist mode) or IC50 (for antagonist mode) values. For the antagonist mode, a % efficacy for each compound is calculated versus E2 (1 nM) alone. For the agonist mode, a % efficacy for each compound is calculated versus the response to tamoxifen.

- circulating LH levels [1]: did not significantly elevate
- circulating estradiol levels [1]: did not significantly elevate
SMILES: CS(=O)(=O)c1ccc2c(c1)OC(c1ccc(OCCN3CCCCC3)cc1)c1c-2ccc2cc(O)ccc12 (racemic) [Example 3, 8-Methanesulfonyl-5-[4-(2-piperidin-1-yl-ethoxy)-phenyl]-5H-6-oxa-chrysen-2-ol, mono-Hydrochloride salt]
- % antagonism [2]: 81%
- ED50 [2]: 0.17 mpk
- inhibition of the estrogen-induced response (uterine weight/body weight ratio) [2]: inhibit the estrogen-induced response
- stimulation compared with tamoxifen ([3]; agonist mode): less stimulatory than tamoxifen

- IC50 ([3]; Homo sapiens, Ishikawa, antagonist mode, block of estradiol stimulation): 0.045 µM
SMILES: CSc1ccc2c(c1)OC(c1ccc(OCCN3CCCCC3)cc1)c1c-2ccc2cc(O)ccc12.Cl (centres unmarked) [Example 1, 8-Methylsulfanyl-5-[4-(2-piperidin-1-yl-ethoxy)-phenyl-5H-6-oxa-chrysen-2-ol hydrochloride]
- Emax ([3]; Homo sapiens, Ishikawa, agonist mode, % efficacy versus the response to tamoxifen, read-out: relative % efficacy): 26%
- Emax ([3]; Homo sapiens, Ishikawa, antagonist mode, versus E2 (1 nM) alone, read-out: % efficacy): 92%

SMILES: CSc1ccc2c(c1)OC(c1ccc(OCCN3CCCCC3)cc1)c1c-2ccc2cc(O)ccc12.Cl (centres unmarked) [Example 1]
- % antagonism [2]: 69%
- ED50 [2]: 0.22 mpk
- inhibition of the estrogen-induced response (uterine weight/body weight ratio) [2]: inhibit the estrogen-induced response
- stimulation compared with tamoxifen ([3]; agonist mode): less stimulatory than tamoxifen

SMILES: CNS(=O)(=O)c1ccc2c(c1)OC(c1ccc(OCCN3CCCCC3)cc1)c1c-2ccc2cc(O)ccc12.Cl (centres unmarked) [Example 5, 8-N-methyl sulfonamide-5-[4-(2-piperidin-1-yl-ethoxy)-phenyl]-5H-6-oxacbrysen-2-ol]
- stimulation compared with tamoxifen ([3]; agonist mode): less stimulatory than tamoxifen

SMILES: CCS(=O)(=O)c1ccc2c(c1)OC(c1ccc(OCCN3CCCCC3)cc1)c1c-2ccc2cc(O)ccc12.Cl (centres unmarked) [Example 7, 8-Ethanesulfonyl-5-[4-(2-piperidin-1-yl-ethoxy)-phenyl]-5H-6-oxa-chrysen-2-ol hydrochloride salt]
- stimulation compared with tamoxifen ([3]; agonist mode): less stimulatory than tamoxifen

SMILES: CNS(=O)(=O)c1ccc2c(c1)-c1ccc3cc(O)ccc3c1C(c1ccc(OCCN3CCCCC3)cc1)O2.Cl (centres unmarked) [Example 9, 2-Hydroxy-5-[4-(2-piperidin-1-yl-ethoxy)-phenyl]-5H-6-oxa-chrysen-9-sulfonic acid methylamide hydrochloride salt]
- stimulation compared with tamoxifen ([3]; agonist mode): less stimulatory than tamoxifen

SMILES: CS(=O)(=O)c1ccc2c(c1)-c1ccc3cc(O)ccc3c1C(c1ccc(OCCN3CCCCC3)cc1)O2.Cl (centres unmarked) [Example 10, 9-Methanesulfonyl-5-[4-(2-piperidin-1-yl-ethoxy)-phenyl]-5H-6-oxa-chrysen-2-ol hydrochloride salt]
- stimulation compared with tamoxifen ([3]; agonist mode): less stimulatory than tamoxifen
